The source of these data is patent EP4782008A1 (priority 2023, dated 2025).

As a reminder, the AUC(0-inf) is the area under the concentration-time curve extrapolated to infinity. Read a high AUC(0-inf) as high exposure. Broadly, the half-life is the time needed for the level to fall by half in the phase considered.

Data set [1] in a line: Pharmacokinetics following single oral administration. Type of data set: in vivo, healthy Chinese subjects. As to conditions: for AUC(0-inf) / peak plasma drug concentration: empty stomach. As to the method:
Trial design: single-center, randomized, double-blind, placebo-controlled, dose-escalation, single administration. Number of subjects: Planned enrollment: 52 subjects, Final analysis: 51 subjects.
• Specifications: 0.5 mg/tablet, 1 mg/tablet, 2 mg/tablet, prepared according to the method of Example 1; • Dose: 0.5 mg, 1 mg, 2 mg, 4 mg, 8 mg, 12 mg. • Administration method: Single-dose, taken with an appropriate amount of water (240 mL).
Evaluation indicators of pharmacokinetic parameters: Time to peak (Tmax), peak concentration (Cmax), area under the plasma concentration time curve from 0 to t (AUC0-t), area under the plasma concentration time curve from 0 to infinity (AUC0-∞), elimination rate constant (λz), half-life period (t1/2), total clearance/bioavailability (CL/F), apparent volume of distribution/bioavailability (Vd/F).
Pharmacokinetic analysis: Pharmacokinetic parameters were calculated using the non-compartmental analysis (NCA) and Phoenix WinNonlin 7.0 data analysis software. Descriptive statistical analysis was performed on pharmacokinetic parameters, providing the number of subjects, arithmetic mean, standard deviation, minimum, median, maximum, and coefficient of variation (CV). Tmax was expressed as median (minimum - maximum). AUC and Cmax belong to a log-normal distribution. The geometric mean was also provided. The relationship between administered dose and drug plasma exposure was evaluated by plotting scatter plots of log-transformed pharmacokinetic parameters (AUC and Cmax) in relation to log dose. Furthermore, the Power model method was used to further explore the linear analysis of administered dose and drug plasma exposure.
A single dose of the tablets of the compound of formula (I) was administered orally to healthy volunteers on empty stomach. […] When the administered doses were 1 mg, 2 mg, 4 mg, 8 mg, and 12 mg, the peak plasma drug concentrations were 1.19 ng/mL, 2.43 ng/mL, 8.61 ng/mL, 16.4 ng/mL, and 23.5 ng/mL, respectively, and the AUC0-∞ were 14.7 h·ng/mL, 29.8 h·ng/mL, 69.4 h·ng/mL, 135 h·ng/mL, and 220 h·ng/mL, respectively. […] Within the dose range of 1 mg-12 mg, Cmax and AUC0-∞ increased with increasing administered dose, and the increase ratio in AUC0-∞ was basically consistent with the dose increase ratio. The inter-individual variability of plasma drug exposure is around 30%.

For data set [2] the following is noted: background statement; cited from earlier work.
The next data set has as its target hERG (Homo sapiens, UniProt Q12809). To be noted: background statement; cited from earlier work.
The conditions of data set [3]: background statement; cited from earlier work. This is another data set of the same source.
For data set [4] the following is noted: background statement; cited from earlier work. This is another data set of the same source.

hERG, sequence (Q12809 whole entry): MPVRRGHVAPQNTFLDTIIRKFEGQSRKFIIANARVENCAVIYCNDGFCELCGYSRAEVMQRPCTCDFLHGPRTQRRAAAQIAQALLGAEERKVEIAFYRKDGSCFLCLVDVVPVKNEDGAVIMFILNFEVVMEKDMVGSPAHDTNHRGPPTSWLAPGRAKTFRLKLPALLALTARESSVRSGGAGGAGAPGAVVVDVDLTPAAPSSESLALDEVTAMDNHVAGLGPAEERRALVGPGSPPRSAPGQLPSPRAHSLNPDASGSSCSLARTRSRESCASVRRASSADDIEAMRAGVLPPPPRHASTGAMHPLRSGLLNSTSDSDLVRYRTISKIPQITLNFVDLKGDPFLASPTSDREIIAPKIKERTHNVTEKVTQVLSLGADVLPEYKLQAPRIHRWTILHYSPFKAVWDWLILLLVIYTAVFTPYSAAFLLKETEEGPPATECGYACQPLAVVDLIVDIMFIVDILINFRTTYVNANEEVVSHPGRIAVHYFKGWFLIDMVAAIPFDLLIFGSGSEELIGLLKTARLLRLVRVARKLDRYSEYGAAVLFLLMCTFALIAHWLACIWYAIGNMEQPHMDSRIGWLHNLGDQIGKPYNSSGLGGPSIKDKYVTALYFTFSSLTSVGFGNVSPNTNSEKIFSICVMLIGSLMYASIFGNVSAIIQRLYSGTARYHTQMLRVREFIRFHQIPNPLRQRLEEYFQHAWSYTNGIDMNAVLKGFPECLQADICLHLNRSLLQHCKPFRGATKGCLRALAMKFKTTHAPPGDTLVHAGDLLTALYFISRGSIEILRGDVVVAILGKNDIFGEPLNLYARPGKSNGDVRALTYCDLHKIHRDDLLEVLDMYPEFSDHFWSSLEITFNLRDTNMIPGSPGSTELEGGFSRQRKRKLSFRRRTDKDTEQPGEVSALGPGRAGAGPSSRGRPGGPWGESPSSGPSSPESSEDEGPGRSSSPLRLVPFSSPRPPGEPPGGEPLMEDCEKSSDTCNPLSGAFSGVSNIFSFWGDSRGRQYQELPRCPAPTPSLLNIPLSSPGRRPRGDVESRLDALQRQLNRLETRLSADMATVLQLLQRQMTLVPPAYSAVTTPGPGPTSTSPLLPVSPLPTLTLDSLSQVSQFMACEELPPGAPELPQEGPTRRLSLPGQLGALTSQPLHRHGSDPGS

In the case of `COc1cc2c(cc1OC)C(=O)C(CC1(F)CCN(Cc3ccccc3F)CC1)C2` (stereo not shown) [compound of formula (I), 2-(4-fluoro-(1-(2-fluorobenzyl))piperidin-4-yl-methyl)-5,6-dimethoxy-2,3-dihydro-1-indanone], the AUC(0-inf) in data set [1] (human, plasma, single oral dose 1 mg) was 14.7 ng·h/mL; in data set [1] (human, plasma, single oral dose 2 mg), 29.8 ng·h/mL; in data set [1] (human, plasma, single oral dose 4 mg), 69.4 ng·h/mL; in data set [1] (human, plasma, single oral dose 8 mg), 135 ng·h/mL; in data set [1] (human, plasma, single oral dose 12 mg) it was 220 ng·h/mL. Besides, in data set [1] (human, plasma, single oral dose of tablets on empty stomach, range over dose groups, read-out: mean plasma drug elimination half-life period), the half-life lay within 852 to 1930 min. Moreover, the “inter-individual variability of plasma drug exposure” value in data set [1] (single oral dose) is on record as “around 30%”. Also, the “peak plasma drug concentration” value came to 1.19 ng/mL in data set [1] (single oral dose 1 mg); 2.43 ng/mL in data set [1] (single oral dose 2 mg); 8.61 ng/mL in data set [1] (single oral dose 4 mg); 16.4 ng/mL in data set [1] (single oral dose 8 mg); 23.5 ng/mL in data set [1] (single oral dose 12 mg). For the same molecule, the “drug concentration in brain tissue relative to the plasma drug concentration” value in data set [2] is 4.4 times. The hERG toxicity result on hERG is given as “no”. Besides, in data set [3], the genetic toxicity entry is reported as “no”. In addition, the oral bioavailability entry in data set [4] was “high”.
